The values that follow come from patent publication US20090269753A1 (priority 2007, published 2009).

A short description of test [1]: Hip and lumbar BMD by DXA at baseline and after 12 months of tamoxifen treatment. It counts as in vivo, women. An excerpt: Patients were enrolled after they had completed all primary surgery, radiation, and adjuvant chemotherapy.
The test system of test [2] is fasl. As to the kind of experiment: fasl real-time RT-PCR in SRC-1-/- osteoclasts transfected with SRC-1 WT or P1272S. The class given is cell-based, mice. The following applies: estradiol 10 nM or 40H-Tamoxifen 1 μM, 24 h.
Setting [3] is: SRC-1-/- osteoclasts with P1272S SRC-1.
Where [4] appears, read: SRC-1-/- osteoclasts with transfected Flag-SRC-1 WT vs vector alone.

In the case of `CC/C(=C(\c1ccccc1)c1ccc(OCCN(C)C)cc1)c1ccccc1` [Tamoxifen, tamoxifen], the “Lumbar BMD decrease” value in test [1] (P1272S carriers (n=4), p=0.04 vs women without the SNP) is listed as 6.4%; in test [1] (women without the SNP (n=107)), 1.3%. For the same molecule, the “hip BMD decrease” value is given as 4.3% in test [1] (SNP carriers (n=4), p=0.08 vs WT group) and 0.6% in test [1] (WT group (n=102)). The values for the Induction of fasl result in test [2] (setting [3]) and in test [2] (setting [4]) were “failed to upregulate fasl” and “detectable”, respectively.

Consider `C[C@]12CC[C@@H]3c4ccc(O)cc4CC[C@H]3[C@@H]1CC[C@@H]2O` [Estrogen, estradiol], for which the results for the Induction of fasl result in test [2] (setting [3]) and in test [2] (setting [4]) were “failed to upregulate fasl” and “detectable”, respectively.
